System: mold
Assay: Mold growth on inoculated cementitious material samples
Type: cell-based
Settings: cementitious materials formed from mixtures including calcium propionate solutions (0.05, 0.1, 0.2% by weight of concrete ingredients); inoculated with a composition of mold; after two weeks in an environment conducive of mold growth
Source text: Samples of cementitious materials formed from a cementitious mixture including the calcium propionate solutions were inoculated with a composition of mold and placed in an environment conducive of mold growth.

SMILES: CCC(=O)[O-].CCC(=O)[O-].[Ca+2] [calcium propionate]
- mold propagation on the cementitious materials: no mold propagation was observed

— patent publication US20070169671A1, “Mold Inhibiting Admixture for a Cementitious Material” (priority 2006, published 2007)
